Results taken from EP4745135A1 (Gluetacs Therapeutics (Shanghai) Co., Ltd., priority 2023, dated 2025).

What was measured:
[1] = molecular target: T1, IKZF1 (Homo sapiens, UniProt Q13422+Q96SW2); assay: Western blot, degradation of substrate protein in hPBMCs; type: cell-based
T1 construct: effects of the compounds of the present disclosure on the expression of target proteins in cells; endogenous in cells; host or cells: human PBMCs (Milecell Biotechnologies)

[2] = molecular target: T2, IKZF2 (Homo sapiens, UniProt Q96SW2+Q9UKS7); assay: as above; type: cell-based
T2 construct: effects of the compounds of the present disclosure on the expression of target proteins in cells; endogenous in cells; host or cells: human PBMCs (Milecell Biotechnologies)
T2 sequence (Q9UKS7 whole entry): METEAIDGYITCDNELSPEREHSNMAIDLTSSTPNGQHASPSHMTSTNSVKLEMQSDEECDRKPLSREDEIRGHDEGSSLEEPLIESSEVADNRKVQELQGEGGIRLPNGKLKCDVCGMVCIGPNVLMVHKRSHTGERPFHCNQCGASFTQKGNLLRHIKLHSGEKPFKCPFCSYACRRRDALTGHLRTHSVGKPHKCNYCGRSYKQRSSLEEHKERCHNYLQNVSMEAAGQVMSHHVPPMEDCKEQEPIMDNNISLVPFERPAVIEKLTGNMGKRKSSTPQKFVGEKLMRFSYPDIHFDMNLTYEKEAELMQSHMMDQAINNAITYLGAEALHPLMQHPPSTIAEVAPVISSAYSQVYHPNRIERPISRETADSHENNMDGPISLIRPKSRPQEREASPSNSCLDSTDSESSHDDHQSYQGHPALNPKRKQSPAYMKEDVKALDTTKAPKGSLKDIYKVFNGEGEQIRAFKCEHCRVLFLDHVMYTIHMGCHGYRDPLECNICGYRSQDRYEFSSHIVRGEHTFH
T2 sequence (Q96SW2 whole entry): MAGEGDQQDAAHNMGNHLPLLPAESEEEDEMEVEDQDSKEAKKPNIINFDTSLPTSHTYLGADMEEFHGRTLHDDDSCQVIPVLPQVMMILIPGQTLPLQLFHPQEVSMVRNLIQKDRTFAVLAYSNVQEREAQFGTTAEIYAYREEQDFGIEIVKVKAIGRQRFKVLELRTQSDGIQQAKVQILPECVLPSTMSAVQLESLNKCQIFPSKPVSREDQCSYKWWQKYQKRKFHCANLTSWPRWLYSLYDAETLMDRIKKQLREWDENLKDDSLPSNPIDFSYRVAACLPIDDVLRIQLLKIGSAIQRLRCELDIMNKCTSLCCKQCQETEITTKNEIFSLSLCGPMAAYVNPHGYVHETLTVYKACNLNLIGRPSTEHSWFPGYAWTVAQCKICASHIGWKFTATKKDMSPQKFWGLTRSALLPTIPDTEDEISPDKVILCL
T2 sequence (Q16531 whole entry partner): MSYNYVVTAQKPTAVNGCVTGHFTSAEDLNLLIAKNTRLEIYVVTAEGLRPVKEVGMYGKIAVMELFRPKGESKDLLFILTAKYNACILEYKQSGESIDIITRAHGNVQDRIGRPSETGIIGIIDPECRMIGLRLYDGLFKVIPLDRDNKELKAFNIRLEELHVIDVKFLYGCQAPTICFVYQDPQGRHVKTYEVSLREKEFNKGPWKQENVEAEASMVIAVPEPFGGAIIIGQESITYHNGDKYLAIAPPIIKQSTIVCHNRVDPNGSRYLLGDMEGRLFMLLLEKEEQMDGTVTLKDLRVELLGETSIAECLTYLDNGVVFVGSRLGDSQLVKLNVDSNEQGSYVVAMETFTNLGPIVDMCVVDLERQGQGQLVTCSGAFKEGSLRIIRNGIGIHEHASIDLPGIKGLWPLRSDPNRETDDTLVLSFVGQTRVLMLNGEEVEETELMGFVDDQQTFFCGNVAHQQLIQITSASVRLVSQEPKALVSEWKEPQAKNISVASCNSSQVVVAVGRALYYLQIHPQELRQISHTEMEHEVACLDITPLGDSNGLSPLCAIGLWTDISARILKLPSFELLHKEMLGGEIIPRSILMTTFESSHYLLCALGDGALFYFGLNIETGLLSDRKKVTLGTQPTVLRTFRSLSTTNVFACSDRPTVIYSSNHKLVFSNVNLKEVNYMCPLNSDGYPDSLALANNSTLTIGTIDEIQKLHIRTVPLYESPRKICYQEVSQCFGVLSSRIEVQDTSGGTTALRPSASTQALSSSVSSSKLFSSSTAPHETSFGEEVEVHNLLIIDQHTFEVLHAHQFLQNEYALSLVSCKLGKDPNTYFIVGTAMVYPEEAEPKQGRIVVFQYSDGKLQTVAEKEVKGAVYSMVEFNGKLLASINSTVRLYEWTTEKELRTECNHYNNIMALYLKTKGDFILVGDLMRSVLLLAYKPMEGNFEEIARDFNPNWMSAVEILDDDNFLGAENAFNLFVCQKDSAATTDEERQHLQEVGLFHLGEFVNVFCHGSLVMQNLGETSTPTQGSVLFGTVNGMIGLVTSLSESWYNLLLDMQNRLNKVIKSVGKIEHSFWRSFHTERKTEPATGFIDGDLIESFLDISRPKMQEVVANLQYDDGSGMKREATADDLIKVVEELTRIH

[3] = molecular target: T3, IKZF3 (Homo sapiens, UniProt Q96SW2+Q9UKT9); assay: as above; type: cell-based
T3 construct: effects of the compounds of the present disclosure on the expression of target proteins in cells; endogenous in cells; host or cells: human PBMCs (Milecell Biotechnologies)
T3 sequence (Q9UKT9 whole entry): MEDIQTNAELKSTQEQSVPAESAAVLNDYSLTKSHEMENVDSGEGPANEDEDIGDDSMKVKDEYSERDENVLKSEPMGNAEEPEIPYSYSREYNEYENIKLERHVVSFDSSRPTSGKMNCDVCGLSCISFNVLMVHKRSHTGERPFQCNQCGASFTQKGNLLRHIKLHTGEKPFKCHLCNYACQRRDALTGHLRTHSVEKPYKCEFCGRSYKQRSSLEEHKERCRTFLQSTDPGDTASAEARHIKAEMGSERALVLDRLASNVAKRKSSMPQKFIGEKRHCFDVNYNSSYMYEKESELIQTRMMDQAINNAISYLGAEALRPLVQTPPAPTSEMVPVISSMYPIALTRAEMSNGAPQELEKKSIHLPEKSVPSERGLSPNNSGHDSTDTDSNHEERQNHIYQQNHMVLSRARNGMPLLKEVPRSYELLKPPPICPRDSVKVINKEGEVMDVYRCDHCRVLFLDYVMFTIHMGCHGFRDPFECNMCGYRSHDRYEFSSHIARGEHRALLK
T3 sequence (Q96SW2 whole entry): as the sequence (Q96SW2 whole entry) above
T3 sequence (Q16531 whole entry partner): as the sequence (Q16531 whole entry partner) above

[4] = molecular target: T4, WEE1 (Homo sapiens, UniProt P30291+Q96SW2); assay: as above; type: cell-based
T4 construct: effects of the compounds of the present disclosure on the expression of target proteins in cells; endogenous in cells; host or cells: human PBMCs (Milecell Biotechnologies)
T4 sequence (P30291 whole entry): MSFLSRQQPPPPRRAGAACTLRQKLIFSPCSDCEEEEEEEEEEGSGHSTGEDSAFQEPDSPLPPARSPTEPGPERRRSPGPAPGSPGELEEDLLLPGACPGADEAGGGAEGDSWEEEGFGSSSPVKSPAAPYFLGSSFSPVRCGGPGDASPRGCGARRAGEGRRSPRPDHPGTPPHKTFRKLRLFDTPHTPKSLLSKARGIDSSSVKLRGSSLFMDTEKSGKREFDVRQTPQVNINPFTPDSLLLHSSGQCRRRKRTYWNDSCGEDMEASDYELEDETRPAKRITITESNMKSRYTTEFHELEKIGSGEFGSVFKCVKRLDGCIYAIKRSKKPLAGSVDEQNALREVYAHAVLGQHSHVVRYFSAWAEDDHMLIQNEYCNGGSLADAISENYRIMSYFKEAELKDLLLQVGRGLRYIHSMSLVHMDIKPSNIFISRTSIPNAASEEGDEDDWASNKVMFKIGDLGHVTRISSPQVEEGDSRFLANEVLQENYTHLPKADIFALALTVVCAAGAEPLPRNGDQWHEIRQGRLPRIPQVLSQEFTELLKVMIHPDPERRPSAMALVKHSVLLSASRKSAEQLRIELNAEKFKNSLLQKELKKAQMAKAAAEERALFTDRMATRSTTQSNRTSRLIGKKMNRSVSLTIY
T4 sequence (Q96SW2 whole entry): as the sequence (Q96SW2 whole entry) above
T4 sequence (Q16531 whole entry partner): as the sequence (Q16531 whole entry partner) above

[5] = molecular target: T5, CK1α (Homo sapiens, UniProt P48729+Q96SW2); assay: as above; type: cell-based
T5 construct: effects of the compounds of the present disclosure on the expression of target proteins in cells; endogenous in cells; host or cells: human PBMCs (Milecell Biotechnologies)
T5 sequence (P48729 whole entry): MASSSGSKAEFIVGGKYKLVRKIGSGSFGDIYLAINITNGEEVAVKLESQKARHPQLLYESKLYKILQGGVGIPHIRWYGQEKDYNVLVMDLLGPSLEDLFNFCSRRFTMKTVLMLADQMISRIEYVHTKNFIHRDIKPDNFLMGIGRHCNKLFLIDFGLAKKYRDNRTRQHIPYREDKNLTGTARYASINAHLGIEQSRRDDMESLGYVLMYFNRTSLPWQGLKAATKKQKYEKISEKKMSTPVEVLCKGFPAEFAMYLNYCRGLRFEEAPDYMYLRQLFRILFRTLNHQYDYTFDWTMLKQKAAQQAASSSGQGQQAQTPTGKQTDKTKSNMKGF
T5 sequence (Q96SW2 whole entry): as the sequence (Q96SW2 whole entry) above
T5 sequence (Q16531 whole entry partner): as the sequence (Q16531 whole entry partner) above

[6] = tested on: GSPT1; assay: as above; type: cell-based, Human
[7] = molecular target: T6, human Cereblon WT GST-tagged protein (Homo sapiens, UniProt Q96SW2); assay: CRBN-binding affinity, HTRF (CEREBLON BINDING kit); conditions: for inhibition at 0.5 µM: read-out: Inhibition Rate at 0.5 µM (%); for inhibition at 2 µM: read-out: Inhibition Rate at 2 µM (%)
T6 construct: purchased CISBIO 64BDCRBNPEH
T6 sequence (Q96SW2 whole entry): as the sequence (Q96SW2 whole entry) above

[8] = Western blot, 24 hours of compound treatment, compounds tested at 50 nM and 500 nM (concentration for the table not stated)
[9] = 24 hours treatment, compounds at 50 nM and 500 nM (concentration behind the class not stated)

T1 sequence (Q13422 whole entry): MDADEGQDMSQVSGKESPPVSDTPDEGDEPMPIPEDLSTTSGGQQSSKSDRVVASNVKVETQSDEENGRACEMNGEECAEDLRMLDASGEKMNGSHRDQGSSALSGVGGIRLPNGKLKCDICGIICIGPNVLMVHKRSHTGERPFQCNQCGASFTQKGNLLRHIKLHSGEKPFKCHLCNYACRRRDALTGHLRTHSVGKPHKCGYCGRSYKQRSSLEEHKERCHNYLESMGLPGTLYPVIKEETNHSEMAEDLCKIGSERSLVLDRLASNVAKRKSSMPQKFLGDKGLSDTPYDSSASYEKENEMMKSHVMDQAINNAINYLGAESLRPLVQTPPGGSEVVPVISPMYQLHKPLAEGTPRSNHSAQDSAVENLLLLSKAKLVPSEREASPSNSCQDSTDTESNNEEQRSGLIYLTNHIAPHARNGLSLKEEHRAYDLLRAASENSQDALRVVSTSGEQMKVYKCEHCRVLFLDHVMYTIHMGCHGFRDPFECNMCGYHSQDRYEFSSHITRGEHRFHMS
T1 sequence (Q96SW2 whole entry): as the sequence (Q96SW2 whole entry) above
T1 sequence (Q16531 whole entry partner): as the sequence (Q16531 whole entry partner) above

O=C1CCC(N2Cc3cc(CN4CC5CCC4CN5C(c4ccccc4)c4ccccc4)ccc3C2=S)C(=O)N1 (stereo not drawn) [GT-07847, 3-(5-((5-benzhydryl-2,5-diazabicyclo[2.2.2]octan-2-yl)methyl)-1-thioxoisoindolin-2-yl)piperidine-2,6-dione]
IKZF 1 substrate protein remaining % [1, 8]: B (80%< substrate protein remaining %≤ 100%)
IKZF2 substrate protein remaining % [2, 8]: A (0% ≤ substrate protein remaining % ≤ 80%)
IKZF3 substrate protein remaining % [3, 8]: A (0% ≤ substrate protein remaining % ≤ 80%)
Wee1 substrate protein remaining % [4, 8]: A (0% ≤ substrate protein remaining % ≤ 80%)
CK1α substrate protein remaining % [5, 8]: B (80%< substrate protein remaining %≤ 100%)
GSPT1 substrate protein remaining % [6, 8]: A (0% ≤ substrate protein remaining % ≤ 80%)
inhibition at 0.5 µM [7]: 53 to 60%
inhibition at 2 µM [7]: 80 to 100%

O=C1CCC(N2Cc3c(CN4CCN(c5c(F)cccc5F)CC4)cccc3C2=S)C(=O)N1 (stereo not drawn) [GT-08630, 3-(4-((4-(2,6-difluorophenyl)piperazin-1-yl)methyl)-1-thioxoisoindolin-2-yl)piperidine-2,6-dione]
IKZF 1 substrate protein remaining % [1, 8]: B (80%< substrate protein remaining %≤ 100%)
IKZF2 substrate protein remaining % [2, 8]: B (80%< substrate protein remaining %≤ 100%)
IKZF3 substrate protein remaining % [3, 8]: B (80%< substrate protein remaining %≤ 100%)
Wee1 substrate protein remaining % [4, 8]: A (0% ≤ substrate protein remaining % ≤ 80%)
CK1α substrate protein remaining % [5, 8]: B (80%< substrate protein remaining %≤ 100%)
GSPT1 substrate protein remaining % [6, 8]: A (0% ≤ substrate protein remaining % ≤ 80%)
inhibition at 0.5 µM [7]: 53 to 60%
inhibition at 2 µM [7]: 60 to 80%

O=C1CCC(N2Cc3ccccc3C2=S)C(=O)N1 (stereo not drawn) [GT-05563, 3-(1-thioxoisoindolin-2-yl)piperidine-2,6-dione]
IKZF 1 substrate protein remaining % [1, 9]: A (0% ≤ substrate protein remaining % ≤ 80%)
IKZF2 substrate protein remaining % [2, 9]: A (0% ≤ substrate protein remaining % ≤ 80%)
IKZF3 substrate protein remaining % [3, 9]: A (0% ≤ substrate protein remaining % ≤ 80%)
Wee1 substrate protein remaining % [4, 9]: A (0% ≤ substrate protein remaining % ≤ 80%)
CK1α substrate protein remaining % [5, 9]: B (80%< substrate protein remaining %≤ 100%)
GSPT1 substrate protein remaining % [6, 9]: B (80%< substrate protein remaining %≤ 100%)
IC50 ([7]; CRBN binding, HTRF, 3 hours at room temperature, read-out: HTRF IC50): < 100 nM

O=C1CCC(N2Cc3cc(CN4CCC(c5noc6ccccc56)CC4)ccc3C2=S)C(=O)N1 (stereo not drawn) [GT-09266, 3-(5-((4-(benzo[d]isoxazol-3-yl)piperidin-1-yl)methyl)-1-thioxoisoindolin-2-yl)piperidine-2,6-dione]
IKZF 1 substrate protein remaining % [1, 9]: B (80%< substrate protein remaining %≤ 100%)
IKZF2 substrate protein remaining % [2, 9]: B (80%< substrate protein remaining %≤ 100%)
IKZF3 substrate protein remaining % [3, 9]: B (80%< substrate protein remaining %≤ 100%)
Wee1 substrate protein remaining % [4, 9]: B (80%< substrate protein remaining %≤ 100%)
CK1α substrate protein remaining % [5, 9]: B (80%< substrate protein remaining %≤ 100%)
GSPT1 substrate protein remaining % [6, 9]: A (0% ≤ substrate protein remaining % ≤ 80%)
inhibition at 0.5 µM [7]: 60 to 80%
inhibition at 2 µM [7]: 80 to 100%

O=C1CCC(N2Cc3c(CN4CCN(c5ccccc5)CC4)cccc3C2=S)C(=O)N1 (stereo not drawn) [GT-08259, 3-(4-((4-phenylpiperazin-1-yl)methyl)-1-thioxoisoindolin-2-yl)piperidine-2,6-dione]
IKZF 1 substrate protein remaining % [1, 8]: B (80%< substrate protein remaining %≤ 100%)
IKZF2 substrate protein remaining % [2, 8]: B (80%< substrate protein remaining %≤ 100%)
IKZF3 substrate protein remaining % [3, 8]: B (80%< substrate protein remaining %≤ 100%)
Wee1 substrate protein remaining % [4, 8]: A (0% ≤ substrate protein remaining % ≤ 80%)
CK1α substrate protein remaining % [5, 8]: B (80%< substrate protein remaining %≤ 100%)
GSPT1 substrate protein remaining % [6, 8]: A (0% ≤ substrate protein remaining % ≤ 80%)
inhibition at 0.5 µM [7]: 40 to 53%
inhibition at 2 µM [7]: 60 to 80%

O=C1CCC(N2Cc3cc(CN4CCN(c5ccsc5)CC4)ccc3C2=S)C(=O)N1 (stereo not drawn) [GT-08169, 3-(5-((4-(thiophen-3-yl)piperazin-1-yl)methyl)-1-thioxoisoindolin-2-yl)piperidine-2,6-dione]
IKZF 1 substrate protein remaining % [1, 9]: B (80%< substrate protein remaining %≤ 100%)
IKZF2 substrate protein remaining % [2, 9]: B (80%< substrate protein remaining %≤ 100%)
IKZF3 substrate protein remaining % [3, 9]: B (80%< substrate protein remaining %≤ 100%)
Wee1 substrate protein remaining % [4, 9]: A (0% ≤ substrate protein remaining % ≤ 80%)
CK1α substrate protein remaining % [5, 9]: B (80%< substrate protein remaining %≤ 100%)
GSPT1 substrate protein remaining % [6, 9]: A (0% ≤ substrate protein remaining % ≤ 80%)
inhibition at 0.5 µM [7]: 80 to 100%
inhibition at 2 µM [7]: 80 to 100%

O=C1CCC(N2Cc3cc(CN4C[C@H]5C[C@@H]4CN5C(c4ccccc4)c4ccccc4)ccc3C2=S)C(=O)N1 (stereo partly drawn) [GT-07740, 3-(5-(((1R,4R)-5-benzhydryl-2,5-diazabicyclo[2.2.1]heptan-2-yl)methyl)-1-thioxoisoindolin-2-yl)piperidine-2,6-dione]
IKZF 1 substrate protein remaining % [1, 8]: A (0% ≤ substrate protein remaining % ≤ 80%)
IKZF2 substrate protein remaining % [2, 8]: A (0% ≤ substrate protein remaining % ≤ 80%)
IKZF3 substrate protein remaining % [3, 8]: B (80%< substrate protein remaining %≤ 100%)
Wee1 substrate protein remaining % [4, 8]: B (80%< substrate protein remaining %≤ 100%)
CK1α substrate protein remaining % [5, 8]: B (80%< substrate protein remaining %≤ 100%)
GSPT1 substrate protein remaining % [6, 8]: B (80%< substrate protein remaining %≤ 100%)
inhibition at 0.5 µM [7]: 53 to 60%
inhibition at 2 µM [7]: 80 to 100%

C[C@@H]1CN(C(c2ccccc2)c2ccccc2)CCN1Cc1cccc2c1CN(C1CCC(=O)NC1=O)C2=S (stereo partly drawn) [GT-08232, 3-(4-(((R)-4-benzhydryl-2-methylpiperazin-1-yl)methyl)-1-thioxoisoindolin-2-yl)piperidine-2,6-dione]
IKZF 1 substrate protein remaining % [1, 8]: B (80%< substrate protein remaining %≤ 100%)
IKZF2 substrate protein remaining % [2, 8]: A (0% ≤ substrate protein remaining % ≤ 80%)
IKZF3 substrate protein remaining % [3, 8]: B (80%< substrate protein remaining %≤ 100%)
Wee1 substrate protein remaining % [4, 8]: A (0% ≤ substrate protein remaining % ≤ 80%)
CK1α substrate protein remaining % [5, 8]: B (80%< substrate protein remaining %≤ 100%)
GSPT1 substrate protein remaining % [6, 8]: A (0% ≤ substrate protein remaining % ≤ 80%)
inhibition at 0.5 µM [7]: 40 to 53%
inhibition at 2 µM [7]: 80 to 100%
